EP0470794A1, “Process for the preparation of nitriles” (ZENECA LIMITED, priority 1990, dated 1992)

How the values were obtained:
[1] = tested on: AII-induced contractions of isolated rabbit aorta; assay: Test B: antagonism of AII-induced contractions of isolated aorta; type: cell-based; settings: Oryctolagus cuniculus, 37°C, average, read-out: average pA₂ (converted)
Description: In general, compounds of formula VI as defined above show significant inhibition in Test A at a concentration of 50 micromolar or much less. Test B: This in vitro test involves the measurement of the antagonistic effects of the test compound against AII-induced contractions of isolated rabbit aorta, maintained in a physiological salt solution at 37°C. In order to ensure that the effect of the compound is specific to antagonism of AII, the effect of the test compound on noradrenaline-induced contractions may also be determined in the same preparation.

[2] = tested on: angiotensin II-induced pressor responses; assay: Test C: antagonism of angiotensin II-induced pressor responses in vivo; settings: Rattus norvegicus, iv; i.v. administration; rats; read-out: ED₅₀
Description: In general, compounds of formula VI as defined above show significant inhibition in Test B at a final concentration of 50 micromolar or much less. Test C: This in vivo test involves using terminally-anaesthetised or conscious rats in which an arterial catheter has been implanted under anaesthesia for the measurement of changes in blood pressure. The AII antagonistic effects of the test compound following oral or parenteral administration, are assessed against angiotensin II-induced pressor responses. To ensure that the effect is specific, the effect of the test compound on vasopressin-induced pressor responses may also be determined in the same preparation.

Q: Which Kb [1] does the source give for `Cc1cc(OCc2ccc(-c3ccccc3-c3nnn[nH]3)cc2)c2ccccc2n1.Cl` [2-methyl-4-[(2′-(1H-tetrazol-5-yl)biphenyl-4-yl)methoxy]quinoline hydrochloride] here?
A: 1.12 nM

Q: And the ED50 [2]?
A: 0.5 mg/kg
